Legend:
CRPC tumors = experiment: Aggarwal cluster designation and Labrecque classification of progression tumors (lineage plasticity); set-up: species or system human; conditions: 3/21 progression tumors (Aggarwal cluster 2, DNPC by Labrecque)
Description: The unsupervised analysis from Aggarwal, et al. 25 identified five clusters using 119 samples. That study identified 528 genes that were the most differentially expressed between the clusters. Using that gene list, cluster assignments for new samples included in this matched biopsy cohort were determined without replicating the unsupervised analysis. First, the sample batch effect between the samples from the previous study and those from the current study was addressed with exponential normalization on the expression data of all samples—old and new. Exponential normalization is a per-sample operation that fits the expression of all genes to a unit exponential distribution. […]
To determine the Labrecque classification, a 26 gene signature used previously to define five phenotypic categories of CRPC 24 was applied: AR-high prostate cancer (ARPC), amphicrine prostate cancer, AR-low prostate cancer (ARLPC), double-negative prostate cancer (DNPC), and neuroendocrine prostate cancer (NEPC) 24. […] Samples were assigned to the phenotype groups by clustering using Euclidean distance calculated by the dist function and visualization using classical multidimensional scaling (MDS) calculated with the cmdscale function in R using the log2(TPM+1) transformed expression profiles of the remaining 25 genes.

[1] = test system: metastatic, castration-resistant prostate cancer; experiment: Enzalutamide treatment of WCDT patients with matched biopsies: PSA response and time on treatment; format: in vivo, human; set-up: PSA Change at 12 weeks: unit not given here
Description: (§1) Methods for tissue collection have been described previously 48.
By examining the Stand Up to Cancer Foundation/Prostate Cancer Foundation West Coast Dream Team (WCDT) prospective cohort, 21 patients with CRPC who underwent a metastatic tumor biopsy prior to enza and a repeat biopsy at the time of progression and whose tumor cells underwent RNA-sequencing after laser capture microdissection were identified. All progression biopsies were performed prior to discontinuing enza, enabling one to identify resistance mechanisms induced by continued enza treatment.
Bone was the most common site for both pre-treatment and progression biopsies. Eighteen of 21 patients had the same tissue type biopsied at progression. In eight patients, the exact same lesion was biopsied at baseline and progression (FIG. 1B, Table 3). The median time on enza treatment was 226 days.

[2] = test system: CRPC tumor biopsy transcriptome; experiment: RNA-sequencing differential gene expression (DESeq2), progression versus baseline in converters; set-up: species or system human; conditions: progression vs baseline samples from the three converters
Description: as §1
Core biopsy samples were flash frozen in Optical Cutting Temperature (OCT) for gene expression analysis. Laser capture microdissection was performed on frozen sections to enrich for tumor content 49. Total RNA was isolated (Stratagene Absolutely RNA Nano Prep) (RIN>8) and amplified using NuGEN Ovation RNA seq System V2. Libraries were generated using NuGEN Ovation Ultralow System V2 for Illumina sequencing. RNA seq was performed on the Illumina NextSeq 500, PE75 with at least 100M read pairs. The raw fastq files were first quality checked using FastQC (version 0.11.8) software (http://www.bioinformatics.bbsrc.ac.uk/projects/fastqc/). Fastq files were aligned to hg38 human reference genome and per-gene counts and transcripts per million (TPM) quantified by RSEM 50 (version 1.3.1) based on the gene annotation gencode.v28.annotation.gtf.
Differential expression gene, pathway, and master regulator analysis Differential gene expression analysis was performed using DESeq2 (version 1.22.2). Gene expression differences were considered significant if passing the following criteria: adjusted P-value <0.05, absolute fold change >1.5. For the converter vs non-converter baseline sample comparison, we used the adjusted P-value <0.1. […]

SMILES: CNC(=O)c1ccc(N2C(=S)N(c3ccc(C#N)c(C(F)(F)F)c3)C(=O)C2(C)C)cc1F [enzalutamide]
- enza-induced lineage plasticity and conversion to an AR-independent program, frequency of tumors (CRPC tumors): 14%
- median time on enza treatment ([1]; 21 patients): 226 days
- Median time on enzalutamide, days (SD) ([1]; Table 2, n = 21 patients): 261 days
- 50% PSA response to enzalutamide ([1]; number of patients, n = 21): 7
- PSA Change at 12 weeks ([1]; patient DTB_024): 75.05
- PSA Change at 12 weeks ([1]; patient DTB_060): −20.41
- PSA Change at 12 weeks ([1]; patient DTB_063): −74.64
- PSA Change at 12 weeks ([1]; patient DTB_073): 156.81
- PSA Change at 12 weeks ([1]; patient DTB_080): −28.48
- PSA Change at 12 weeks ([1]; patient DTB_089): 181.18
- PSA Change at 12 weeks ([1]; patient DTB_098): −83.74
- PSA Change at 12 weeks ([1]; patient DTB_102): −93.02
- PSA Change at 12 weeks ([1]; patient DTB_111): 113.99
- PSA Change at 12 weeks ([1]; patient DTB_127): 169.29
- PSA Change at 12 weeks ([1]; patient DTB_135): 164.26
- PSA Change at 12 weeks ([1]; patient DTB_137): −10.85
- PSA Change at 12 weeks ([1]; patient DTB_141): −81.04
- PSA Change at 12 weeks ([1]; patient DTB_149): −80.29
- PSA Change at 12 weeks ([1]; patient DTB_167): −88.38
- PSA Change at 12 weeks ([1]; patient DTB_176): −64.76
- PSA Change at 12 weeks ([1]; patient DTB_194): 100.36
- PSA Change at 12 weeks ([1]; patient DTB_210): −83.36
- PSA Change at 12 weeks ([1]; patient DTB_232): −0.55
- PSA Change at 12 weeks ([1]; patient DTB_265): 5.84
- expression of AR, AR target genes (KLK2, KLK3, TMPRSS2) and HOXB13 [2]: markedly decreased expression

Reference: US20240009172A1, “COMPOSTIONS AND METHODS FOR TREATING PROSTATE CANCER” (The Regents of the University of Michigan, priority 2022, published 2024)
